# Like-named read-outs stand apart in the source and are kept apart here.
# Tests used:
# [1] = directly compressed, control pressure 10 KN; crystal form prepared in Example 8; FIG. 4
# Source text: The crystal form prepared in the Example 8 of the present invention was directly compressed by a tableting machine, and the control pressure was 10 KN.
# [2] = 25° C.
structure (smiles),measurement,setting,value
"CCOc1ccc(Cc2cc([C@@H]3O[C@H](CO)[C@@H](O)[C@H](O)[C@H]3O)ccc2Cl)cc1 [Crystal form E, 2-chloro-5-(β-D-glucopyranosyl-1-yl)-4′-ethoxydiphenylmethane]",Crystal form transformation under tableting,[1],didn't undergo crystal form transformation
same,Time stable,[2],at least 6 months
same,Crystal form,[2]; 0 day,Crystal form E
same,Purity,[2]; 0 day,99.9%
same,Crystal form,[2]; 1 month,Crystal form E
same,Purity,[2]; 1 month,99.9%
same,Crystal form,[2]; 3 months,Crystal form E
same,Purity,[2]; 3 months,99.9%
same,Crystal form,[2]; 6 months,Crystal form E
same,Purity,[2]; 6 months,99.9%
same,Crystal form,"40° C., 0 day",Crystal form E
same,Purity,"40° C., 0 day",99.9%
same,Crystal form,"40° C., 5 days",Crystal form E
same,Purity,"40° C., 5 days",99.9%
same,Crystal form,"40° C., 10 days",Crystal form E
same,Purity,"40° C., 10 days",99.9%
same,Crystal form,"40° C., 30 days",Crystal form E
same,Purity,"40° C., 30 days",99.9%
same,Crystal form,"Lighting (5000 lux), 0 day",Crystal form E
same,Purity,"Lighting (5000 lux), 0 day",99.9%
same,Crystal form,"Lighting (5000 lux), 5 days",Crystal form E
same,Purity,"Lighting (5000 lux), 5 days",99.9%
same,Crystal form,"Lighting (5000 lux), 10 days",Crystal form E
same,Purity,"Lighting (5000 lux), 10 days",99.9%
same,Crystal form,"Lighting (5000 lux), 30 days",Crystal form E
same,Purity,"Lighting (5000 lux), 30 days",99.9%
same,Time stable,high temperature (40° C.),at least 30 days
same,Time stable,lighting (5000 Lux),at least 30 days

# — patent publication US10464915B2, “Dapagliflozin crystal form and preparation method and use thereof” (Jiangsu Hansoh Pharmaceutical Group Co., Ltd., priority 2016, dated 2019)
